We go through twelve compounds from patent US20260077071A1, “Targeted Delivery of Theranostic Agents” (Peter MacCallum Cancer Institute, priority 2022, published 2026).

In this assay the target is T1, human full-length CCK-2 receptor (Homo sapiens, UniProt P32239).
T1 construct: stably transfected to over-express the human full-length CCK-2 receptor (A431-CCK-2R); expressed in transfected cells
T1 sequence (P32239 1-447): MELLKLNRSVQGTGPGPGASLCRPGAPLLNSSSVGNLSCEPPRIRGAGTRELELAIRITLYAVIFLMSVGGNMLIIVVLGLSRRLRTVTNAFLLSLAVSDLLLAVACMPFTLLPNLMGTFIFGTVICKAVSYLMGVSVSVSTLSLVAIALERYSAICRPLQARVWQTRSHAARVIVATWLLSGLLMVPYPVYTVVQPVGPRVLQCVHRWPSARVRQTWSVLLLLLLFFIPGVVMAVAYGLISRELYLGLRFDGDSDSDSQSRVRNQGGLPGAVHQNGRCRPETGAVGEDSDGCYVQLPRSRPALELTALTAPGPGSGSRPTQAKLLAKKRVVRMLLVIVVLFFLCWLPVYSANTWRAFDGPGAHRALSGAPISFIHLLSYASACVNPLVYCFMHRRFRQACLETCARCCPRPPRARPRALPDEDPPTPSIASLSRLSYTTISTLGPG
Kind of assay: Competitive ligand binding against [^177Lu]Lu-DOTA-CP04 in A431-CCK-2R cells. The note with it: for IC50: read-out: IC50; for decrease in affinity for the CCK-2 receptor: free peptide versus its linker/metal-complex (DOTA) form. The procedure: CCK-2 receptor binding experiments were conducted using A431 (human epidermoid carcinoma) cells stably transfected to over-express the human full-length CCK-2 receptor (A431-CCK-2R). As a negative control, A431 cells stably transfected with an empty vector were analysed simultaneously (A431-EV). A431 cells were maintained in DMEM (Gibco, Australia) media supplemented with 10% foetal calf serum and 250 μg/mL G418 as described previously (Aloj L, et al., J Nucl Med., 2004, Mar; 45(3), 485-94). The affinity of peptides for the CCK-2R was evaluated using competitive binding assays against [^177Lu]Lu-DOTA-CP04 in A431-CCK-2R cells. Briefly, 48 h before the experiment cells were plated at a density of 650,000 cells per well in 6 well plates. On the day of the experiment the peptides were diluted in DMEM supplemented with 1% foetal calf serum to at least 7 different concentrations (0-400 nM) and approximately 50,000 cpm of [^177Lu]Lu-DOTA-CP04 was added to each dilution. Cells were washed twice in ice-cold binding buffer (DMEM supplemented with 1% foetal calf serum) and resuspended in 1.5 mL of the pre-prepared compound mix before being incubated at 37° C. for 1 h. Post-incubation the media was removed and kept for analysis (unbound fraction) and the cells were washed twice in ice-cold binding buffer, which was pooled with the unbound fraction. Finally, 1 M NaOH was added to the cells and allowed to incubate for 5 min before lysates were collected (bound fraction). A small volume of lysate was kept aside to determine protein concentration using the Pierce® BCA protein assay kit (Thermo Fisher, Australia). All samples were analysed using the Perkin Elmer 2480 Wizard2™ gamma counter (PerkinElmer, Massachusetts, USA) and were normalised according to protein concentration. Half-maximal inhibitory concentrations (IC50) were determined using nonlinear regression calculated using GraphPad Prism Software (GraphPad Software, California, USA).
The compounds were evaluated for their ability to disrupt the binding between CCK-2 receptor (CCK-2R) and [^177Lu]Lu-DOTA-CP04 using the methodology described above and compared to comparative example-2 (FIG. 2; Table 5).

The mark [1] stands for this setting: modified peptides based on Peptide C (Table 4).
The mark [2] stands for this setting: ^natGa chelated DOTA-compounds based on Peptide C (Table 5).

Like-named read-outs stand apart in the source and are kept apart here. Square brackets hold non-standard residues; d marks the D form. Peptide text beside a SMILES is read from it. * marks the point of attachment. DOTA = O=C(O)CN1CCN(CC(=O)O)CCN(CC(=O)*)CCN(CC(=O)O)CC1; Phe(3,4,5-F3) = N[C@@H](Cc1cc(F)c(F)c(F)c1)C(=O)O; Phe(4-CF3) = N[C@@H](Cc1ccc(C(F)(F)F)cc1)C(=O)O; Phe(F5) = N[C@@H](Cc1c(F)c(F)c(F)c(F)c1F)C(=O)O; Phe(4-Ac) = CC(=O)c1ccc(C[C@H](N)C(=O)O)cc1; NMe1Nal = CN[C@@H](Cc1cccc2ccccc12)C(=O)O; Phe(4-CN) = N#Cc1ccc(C[C@H](N)C(=O)O)cc1; 1Nal = N[C@@H](Cc1cccc2ccccc12)C(=O)O; NMeF = CN[C@@H](Cc1ccccc1)C(=O)O; NMeNle = CCCC[C@H](NC)C(=O)O; Sar = CNCC(=O)O

As for `CCCC[C@@H](C(=O)N[C@@H](CC(=O)O)C(=O)N[C@@H](Cc1cccc2ccccc12)C(N)=O)N(C)C(=O)[C@H](Cc1c[nH]c2ccccc12)NC(=O)CN(C)C(=O)[C@H](Cc1ccc(O)cc1)NC(=O)[C@H](C)NC(=O)[C@@H](CCC(=O)O)NC(=O)[C@@H](CCC(=O)O)NC(=O)[C@@H](CCC(=O)O)NC(=O)[C@@H](CCC(=O)O)NC(=O)[C@@H](CCC(=O)O)NC(=O)[C@@H](C)N` [Peptide A] (H-[dA][dE][dE][dE][dE][dE]AY[Sar]W[NMeNle]D[1Nal]-NH2), where the note is “D-Ala analogue versus baseline comparative example-1”, the “loss of binding affinity / activity” value was “greater than 10 fold”.

On to `CCCC[C@@H](C(=O)N[C@@H](CC(=O)O)C(=O)N[C@@H](Cc1cc(F)c(F)c(F)c1)C(N)=O)N(C)C(=O)[C@H](Cc1c[nH]c2ccccc12)NC(=O)CN(C)C(=O)[C@H](Cc1ccc(O)cc1)NC(=O)[C@H](C)NC(=O)[C@@H](CCC(=O)O)NC(=O)[C@@H](CCC(=O)O)NC(=O)[C@@H](CCC(=O)O)NC(=O)[C@@H](C)NC(=O)[C@@H](CCC(=O)O)NC(=O)[C@H](N)CCC(=O)O` [N] (H-[dE][dE][dA][dE][dE][dE]AY[Sar]W[NMeNle]D[Phe(3,4,5-F3)]-NH2; N-terminus assumed), for which the IC50 under setting [1] was found to be 444 ± 32 pM.

For the compound `CCCC[C@@H](C(=O)N[C@@H](CC(=O)O)C(=O)N(C)[C@@H](Cc1ccccc1)C(N)=O)N(C)C(=O)[C@H](Cc1c[nH]c2ccccc12)NC(=O)CN(C)C(=O)[C@H](Cc1ccc(O)cc1)NC(=O)[C@H](C)NC(=O)[C@@H](CCC(=O)O)NC(=O)[C@@H](CCC(=O)O)NC(=O)[C@@H](CCC(=O)O)NC(=O)[C@@H](C)NC(=O)[C@@H](CCC(=O)O)NC(=O)[C@@H](CCC(=O)O)NC(=O)CN1CCN(CC(=O)O)CCN(CC(=O)O)CCN(CC(=O)O)CC1` [^natGa-2, metal not drawn] ({DOTA}-[dE][dE][dA][dE][dE][dE]AY[Sar]W[NMeNle]D[NMeF]-NH2), under setting [2], the IC50 was 185 pM.

For the compound `CCCC[C@@H](C(=O)N[C@@H](CC(=O)O)C(=O)N(C)[C@@H](Cc1cccc2ccccc12)C(N)=O)N(C)C(=O)[C@H](Cc1c[nH]c2ccccc12)NC(=O)CN(C)C(=O)[C@H](Cc1ccc(O)cc1)NC(=O)[C@H](C)NC(=O)[C@@H](CCC(=O)O)NC(=O)[C@@H](CCC(=O)O)NC(=O)[C@@H](CCC(=O)O)NC(=O)[C@@H](C)NC(=O)[C@@H](CCC(=O)O)NC(=O)[C@@H](CCC(=O)O)NC(=O)CN1CCN(CC(=O)O)CCN(CC(=O)O)CCN(CC(=O)O)CC1` [^natGa-4, metal not drawn] ({DOTA}-[dE][dE][dA][dE][dE][dE]AY[Sar]W[NMeNle]D[NMe1Nal]-NH2), the IC50 under setting [2] stood at 96 pM.

Consider `CCCC[C@@H](C(=O)N[C@@H](CC(=O)O)C(=O)N[C@@H](Cc1ccc(O)cc1)C(N)=O)N(C)C(=O)[C@H](Cc1c[nH]c2ccccc12)NC(=O)CN(C)C(=O)[C@H](Cc1ccc(O)cc1)NC(=O)[C@H](C)NC(=O)[C@@H](CCC(=O)O)NC(=O)[C@@H](CCC(=O)O)NC(=O)[C@@H](CCC(=O)O)NC(=O)[C@@H](C)NC(=O)[C@@H](CCC(=O)O)NC(=O)[C@H](N)CCC(=O)O` [Peptide R] (H-[dE][dE][dA][dE][dE][dE]AY[Sar]W[NMeNle]DY-NH2; N-terminus assumed), for which the IC50 under setting [1] stood at 1150 ± 96 pM.

Turning to `CCCC[C@@H](C(=O)N[C@@H](CC(=O)O)C(=O)N[C@@H](Cc1ccc(C(C)=O)cc1)C(N)=O)N(C)C(=O)[C@H](Cc1c[nH]c2ccccc12)NC(=O)CN(C)C(=O)[C@H](Cc1ccc(O)cc1)NC(=O)[C@H](C)NC(=O)[C@@H](CCC(=O)O)NC(=O)[C@@H](CCC(=O)O)NC(=O)[C@@H](CCC(=O)O)NC(=O)[C@@H](C)NC(=O)[C@@H](CCC(=O)O)NC(=O)[C@H](N)CCC(=O)O` [V] (H-[dE][dE][dA][dE][dE][dE]AY[Sar]W[NMeNle]D[Phe(4-Ac)]-NH2; N-terminus assumed), the IC50 under setting [1] worked out at 948 ± 52 pM.

On to `CCCC[C@@H](C(=O)N[C@@H](CC(=O)O)C(=O)N[C@@H](Cc1c(F)c(F)c(F)c(F)c1F)C(N)=O)N(C)C(=O)[C@H](Cc1c[nH]c2ccccc12)NC(=O)CN(C)C(=O)[C@H](Cc1ccc(O)cc1)NC(=O)[C@H](C)NC(=O)[C@@H](CCC(=O)O)NC(=O)[C@@H](CCC(=O)O)NC(=O)[C@@H](CCC(=O)O)NC(=O)[C@@H](C)NC(=O)[C@@H](CCC(=O)O)NC(=O)[C@H](N)CCC(=O)O` [T] (H-[dE][dE][dA][dE][dE][dE]AY[Sar]W[NMeNle]D[Phe(F5)]-NH2; N-terminus assumed), for which the IC50 under setting [1] was 607 ± 52 pM.

Consider `CCCC[C@@H](C(=O)N[C@@H](CC(=O)O)C(=O)N[C@@H](Cc1ccc(C#N)cc1)C(N)=O)N(C)C(=O)[C@H](Cc1c[nH]c2ccccc12)NC(=O)CN(C)C(=O)[C@H](Cc1ccc(O)cc1)NC(=O)[C@H](C)NC(=O)[C@@H](CCC(=O)O)NC(=O)[C@@H](CCC(=O)O)NC(=O)[C@@H](CCC(=O)O)NC(=O)[C@@H](C)NC(=O)[C@@H](CCC(=O)O)NC(=O)[C@H](N)CCC(=O)O` [Q] (H-[dE][dE][dA][dE][dE][dE]AY[Sar]W[NMeNle]D[Phe(4-CN)]-NH2; N-terminus assumed), for which the IC50 under setting [1] turned out to be 1570 ± 89 pM.

As to `CCCC[C@@H](C(=O)N[C@@H](CC(=O)O)C(=O)N[C@@H](Cc1ccc(C(F)(F)F)cc1)C(N)=O)N(C)C(=O)[C@H](Cc1c[nH]c2ccccc12)NC(=O)CN(C)C(=O)[C@H](Cc1ccc(O)cc1)NC(=O)[C@H](C)NC(=O)[C@@H](CCC(=O)O)NC(=O)[C@@H](CCC(=O)O)NC(=O)[C@@H](CCC(=O)O)NC(=O)[C@@H](C)NC(=O)[C@@H](CCC(=O)O)NC(=O)[C@H](N)CCC(=O)O` [P] (H-[dE][dE][dA][dE][dE][dE]AY[Sar]W[NMeNle]D[Phe(4-CF3)]-NH2; N-terminus assumed), under setting [1], the IC50 was determined as 1140 pM.

With `CCCC[C@@H](C(=O)N[C@@H](CC(=O)O)C(=O)N[C@@H](Cc1cccc2ccccc12)C(N)=O)N(C)C(=O)[C@H](Cc1c[nH]c2ccccc12)NC(=O)CN(C)C(=O)[C@H](Cc1ccc(O)cc1)NC(=O)[C@H](C)NC(=O)[C@@H](CCC(=O)O)NC(=O)[C@@H](CCC(=O)O)NC(=O)[C@@H](CCC(=O)O)NC(=O)[C@@H](CCC(=O)O)NC(=O)[C@@H](CCC(=O)O)NC(=O)[C@H](N)CCC(=O)O` [Cmp ex-1, reference compound] (H-[dE][dE][dE][dE][dE][dE]AY[Sar]W[NMeNle]D[1Nal]-NH2; N-terminus assumed), the “decrease in affinity for the CCK-2 receptor” value stood at 5 fold. The IC50 (D-Ala substituted peptides (Table 2), against [^177Lu]Lu-DOTA-CP04 in A431-CCK-2R cells) was 319 pM.

Regarding `CSCC[C@H](NC(=O)[C@H](Cc1c[nH]c2ccccc12)NC(=O)CNC(=O)[C@H](Cc1ccc(O)cc1)NC(=O)[C@H](C)NC(=O)[C@@H](CCC(=O)O)NC(=O)[C@@H](CCC(=O)O)NC(=O)[C@@H](CCC(=O)O)NC(=O)[C@@H](CCC(=O)O)NC(=O)[C@@H](CCC(=O)O)NC(=O)[C@@H](CCC(=O)O)NC(=O)CN1CCN(CC(=O)O)CCN(CC(=O)O)CCN(CC(=O)O)CC1)C(=O)N[C@@H](CC(=O)O)C(=O)N[C@@H](Cc1ccccc1)C(N)=O` [CP04, reference compound], the “decrease in affinity for the CCK-2 receptor” value is on record as “greater than 3 fold”.

Turning to `CCCC[C@@H](C(=O)N[C@@H](CC(=O)O)C(=O)N[C@@H](Cc1cc(F)c(F)c(F)c1)C(N)=O)N(C)C(=O)[C@H](Cc1c[nH]c2ccccc12)NC(=O)CN(C)C(=O)[C@H](Cc1ccc(O)cc1)NC(=O)[C@H](C)NC(=O)[C@@H](CCC(=O)O)NC(=O)[C@@H](CCC(=O)O)NC(=O)[C@@H](CCC(=O)O)NC(=O)[C@@H](CCC(=O)O)NC(=O)[C@@H](CCC(=O)O)NC(=O)[C@H](N)CCC(=O)O` [I] (H-[dE][dE][dE][dE][dE][dE]AY[Sar]W[NMeNle]D[Phe(3,4,5-F3)]-NH2), the half-maximal inhibitory concentration (IC50) (substituted-phenylalanine peptides based on Cmp ex-1 (Table 3)) turned out to be 260 pM.

Usually IC50 stands for the concentration needed to halve the response being measured.
